We go through one compound from patent US11136291B2, “Antifungal compounds and uses thereof” (Dana-Farber Cancer Institute, Inc., priority 2016, dated 2021).

The structures appear in SMILES notation. Values after ≈ are worked out from the molar mass of the structure shown.

Data set [1] has as its system rhodamine 6G efflux in C. glabrata. As to the kind of experiment: Rhodamine 6G efflux assay. In kind it is cell-based, Candida glabrata. Particulars: PDR1 wild-type or gain-of-function strains, iKIX1 pre-treatment vs vehicle. Here is the method: Cells were treated with vehicle or iKIX1 and grown with shaking for 16 hours. […] Untreated cells were placed on ice and not treated with ketoconazole or rhodamine 6G. All cells were placed on ice and washed twice with cold YP containing either 5 μM ketoconazole+vehicle (DMSO) or 5 μM ketoconazole+30 μM iKIX1 to remove excess rhodamine 6G. Cells were resuspended in room temperature YP with either 5 μM ketoconazole+vehicle (DMSO) or 5 μM ketoconazole+30 μM iKIX1 and 100 μL was transferred to a 96-well plate. An Envision 2103 Multilabel plate reader was used to assess RFU (relative fluorescence units; excitation 485, emission 535) over 60 minutes at 7.5 minute intervals. Efflux rate was calculated as RFU per second with 7.5 minute windows. Experiments were performed in triplicate, with duplicate readings for each sample; error bars indicate s.d.

The subject of data set [2] is Candida parapsilosis DSY473. As to the kind of experiment: Broth dilution MIC. Particulars: ATCC22019.
Method: (§1) Antifungal susceptibility testing was carried out using broth dilution assays which examined effects of two-fold dilutions of compounds on cellular growth. The minimum inhibitory concentration (MIC) was defined as the drug concentration at which the optical density was equal to or decreased more than 50% from that of the drug-free culture.
Data set [3] deals with T1, CgGal11A KIX domain (Candida glabrata, UniProt Q6FRS9).
T1 construct: other: compared with iKIX1; other: GST-CgGal11A KIX 3 μM, 30 nM FITC-CgPdr1 AD30; Kd of CgPdr1 AD30 for CgGal11A KIX domain; other: FP titration, 30 nM FITC-CgPdr1 AD30; Kd of the CgPdr1 AD for the CgGal11A KIX domain; apparent Ki; fused on or other part: N-terminal His6-GST tag
T1 sequence (Q6FRS9 whole entry, looked up, the tested form may be a part): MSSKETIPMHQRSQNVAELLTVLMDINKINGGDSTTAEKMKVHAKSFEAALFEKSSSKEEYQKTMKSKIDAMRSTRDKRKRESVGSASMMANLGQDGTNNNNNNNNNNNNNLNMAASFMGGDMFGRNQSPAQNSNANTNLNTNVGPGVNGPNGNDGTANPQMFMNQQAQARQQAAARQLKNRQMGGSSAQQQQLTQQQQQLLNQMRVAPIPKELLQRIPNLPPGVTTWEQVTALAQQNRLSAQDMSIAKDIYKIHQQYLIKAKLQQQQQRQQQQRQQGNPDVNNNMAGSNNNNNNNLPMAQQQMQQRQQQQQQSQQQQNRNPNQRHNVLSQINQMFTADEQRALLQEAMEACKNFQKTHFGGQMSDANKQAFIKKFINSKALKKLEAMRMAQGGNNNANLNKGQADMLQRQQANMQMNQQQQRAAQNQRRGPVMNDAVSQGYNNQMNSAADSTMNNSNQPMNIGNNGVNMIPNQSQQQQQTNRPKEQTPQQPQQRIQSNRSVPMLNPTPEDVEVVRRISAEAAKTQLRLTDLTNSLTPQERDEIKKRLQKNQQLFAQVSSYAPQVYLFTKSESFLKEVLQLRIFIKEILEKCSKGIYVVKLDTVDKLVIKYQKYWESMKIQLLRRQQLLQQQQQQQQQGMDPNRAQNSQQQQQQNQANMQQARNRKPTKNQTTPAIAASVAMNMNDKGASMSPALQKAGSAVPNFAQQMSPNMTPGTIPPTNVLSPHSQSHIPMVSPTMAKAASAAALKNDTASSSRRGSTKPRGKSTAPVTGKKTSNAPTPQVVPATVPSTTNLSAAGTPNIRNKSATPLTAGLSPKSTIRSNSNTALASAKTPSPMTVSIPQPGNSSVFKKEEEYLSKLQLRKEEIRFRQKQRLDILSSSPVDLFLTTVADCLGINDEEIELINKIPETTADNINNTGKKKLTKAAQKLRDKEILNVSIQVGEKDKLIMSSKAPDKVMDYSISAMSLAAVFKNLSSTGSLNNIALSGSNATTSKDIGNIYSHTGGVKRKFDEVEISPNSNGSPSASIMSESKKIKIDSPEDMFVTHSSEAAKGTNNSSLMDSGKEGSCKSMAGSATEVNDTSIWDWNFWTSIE
As to the kind of experiment: Fluorescence polarization (FP) binding/competition assay, CgPdr1 AD30 with CgGal11A KIX. Particulars: calculated from measured Kd and IC50; read-out: apparent Ki. As to the method: A fluorescein-tagged 30 amino acid C-terminal activation domain of CgPdr1 (FITC-[…] (SEQ ID NO: 1)) CgPdr1 AD30 was purchased as a synthetic peptide from Pepide2.0. The CgGal11A KIX domain was expressed as a His6-GST fusion protein and purified by affinity chromatography with Ni-NTA resin (Qiagen) and size exclusion chromatography (Sephadex 75, Pharmacia). […] For small molecule screening, fluorescein-CgPdr1 AD30 was held at a concentration of 30 nM and the GST-tagged CgGal11A KIX was at a concentration of 1 μM (above the Kd). The screen was carried out in duplicate and the volume in each well was 25 μL.
To measure the dissociation constant (Kd) of CgPdr1 AD30, FITC labeled CgPdr1 AD30 was held at a concentration of 30 nM and the GST-tagged CgGal11A KIX was prepared with concentrations ranging from 0 to 300 μM. The IC50 for iKIX-1 binding was measured with GST-tagged CgGal11A KIX held at a constant 3 μM concentration, iKIX-1 was titrated from 0 to 1000 μM and 30 nM FITC-labeled CgPdr1 AD30 was added subsequently with an HP D300 digital dispenser (Tecan Group. Maennerdorf, Switzerland). All experiments were carried out in duplicate and the s.d. is reported at each point on the plot.
The FP titration curve of the CgPdr1 AD30 was fitted to GraphPad Prisms (La Jolla, Calif., USA) One site-total binding equation (equation 1). […]

Data set [4] in a line: In vitro stability (plasma, microsomes) and in vivo mouse pharmacokinetics. As to the method:
Microsome stability assays were performed as previously described (see, e.g., Choi J Y, Calvet C M, Gunatilleke S S, Ruiz C, Cameron M D, McKerrow J H, et al. Rational development of 4-aminopyridyl-based inhibitors targeting Trypanosoma cruzi CYP51 as anti-chagas agents. J Med Chem. 56(19):7651-68. PMCID: 3864028); for plasma stability, 100% freshly drawn plasma in LiHeparin was used with similar sampling and sample preparation with no addition of microsomes, buffer or NADPH.
Male Swiss albino mice were dosed via tail vein (IV; intravenous, solution in 5% NMP and 10% solutol in saline, dose: 2 mg/kg) or via oral gavage (PO; suspensions in 0.5% w/v Na CMC with 0.1% v/v Tween-80 in water). Blood and brain samples were collected at 0, 0.083 (for IV only), 0.25, 0.5, 1, 2, 4, 6 (for PO only), 8, 12, and 24 hours for the IV and PO groups. The blood samples were collected from sets of three mice at each time point. Plasma samples were separated by centrifugation and stored below −70° C. until analysis. Brain samples were homogenized using ice-cold phosphate buffer saline (pH 7.4) and homogenates were stored below −70° C. until analysis. All samples were processed and analyzed by […] (LLOQ, 2.03 ng/mL for plasma and 10.16 ng/mL for brain). Pharmacokinetic parameters were calculated using the noncompartmental analysis tool of Phoenix WinNonlin (version 5.3).

Data set [5] has as its system Candida glabrata DSY562. As to the kind of experiment: Broth dilution MIC. As to conditions: Nakaseomyces glabratus.
Method: as §1
The test system of data set [6] is azole-activated and Pdr1-dependent genes. As to the kind of experiment: RNA-Seq. Particulars: 10 μM iKIX1 with 40 μM ketoconazole.
Method: Cells were grown in YPD at 30° C. with shaking overnight (24 hours) then washed twice in 2× volume of Milli-Q water before being resuspended in YP to an OD600 of 0.8. Cells were grown with shaking overnight (˜16 hours) before splitting and treatment with vehicle (DMSO) or 10 μM iKIX1. Cells were grown with shaking another 8 hours before harvest of non-azole induced samples. Remaining cultures were induced to a final concentration of 40 μM ketoconazole and harvested after 15 minutes by centrifugation at 4,000 rpm for 4 minutes at 4° C. Media was aspirated and cells were snap frozen on dry ice. RNA isolation was performed as previously described (see, e.g., Martin R, Moran G P, Jacobsen I D, Heyken A, Domey J, Sullivan D J, et al. The Candida albicans-specific gene EED1 encodes a key regulator of hyphal extension. PLoS One.6(4):e18394. PMCID: 3075580); RNA was then DNase treated using recombinant DNasel. […] Sequencing was carried out on Illumina HiSeq 2500, resulting in approximately 17.68 million of 50 bp paired-end reads per sample. STAR aligner was used to map sequencing reads to transcripts in the reference genomes (S288C for Saccharomyces cerevisiae and draft genome from isolate DSY562 for Candida glabrata) (see, e.g., Dobin A, Davis C A, Schlesinger F, Drenkow J, Zaleski C, Jha S, et al. STAR: ultrafast universal RNA-seq aligner. Bioinformatics.29(1):15-21. PMCID: 3530905). […]
Data set [7] relates to Candida krusei DSY471. As to the kind of experiment: Broth dilution MIC. Particulars: Pichia kudriavzevii, ATCC6258.
Method: as §1

Take `N#CCC(=O)NNC(=S)Nc1ccc(Cl)c(Cl)c1` [iKIX1, 2-(2-Cyanoacetyl)-N-(3,4-dichlorophenyl)hydrazinecarbothioamide]: the “maximum rhodamine 6G efflux rates” value in data set [1] is on record as “Maximum efflux rates were significantly decreased”. The MIC (usually the lowest concentration found to suppress growth) in data set [2] stood at 25 µM (≈ 7.58 µg/mL); in data set [5], 12.5 µM (≈ 3.79 µg/mL); in data set [7], 6.25 µM (≈ 1.89 µg/mL). Moreover, the Ki in data set [3] is 18.1 µM. The “in vitro stability and in vivo mouse pharmacokinetics (in words)” value in data set [4] was “favorable drug-like properties and in vivo exposure”. In addition, the “expression of azole-activated and Pdr1-dependent genes” value in data set [6] is “strongly blunted expression of many azole-activated and Pdr1-dependent genes”.
